Measurements reported in ChEMBL document CHEMBL4049386, “Discovery of an Inhibitor of the Proteasome Subunit Rpn11” (J Med Chem, 2017).

Experiments:
[1] = biological target: T1, 26S proteasome non-ATPase regulatory subunit 14 (Homo sapiens, UniProt O00487); assay: Inhibition of 26S proteasome regulatory subunit RPN11 deubiquitinating activity in beta5 inhibitor MG132 pretreated human HeLa cells expressing UbG76V-GFP assessed as reduction in UbG76V-GFP degradation rate by fluorescence microscopic method; format: cell-based
T1 sequence (O00487 whole entry): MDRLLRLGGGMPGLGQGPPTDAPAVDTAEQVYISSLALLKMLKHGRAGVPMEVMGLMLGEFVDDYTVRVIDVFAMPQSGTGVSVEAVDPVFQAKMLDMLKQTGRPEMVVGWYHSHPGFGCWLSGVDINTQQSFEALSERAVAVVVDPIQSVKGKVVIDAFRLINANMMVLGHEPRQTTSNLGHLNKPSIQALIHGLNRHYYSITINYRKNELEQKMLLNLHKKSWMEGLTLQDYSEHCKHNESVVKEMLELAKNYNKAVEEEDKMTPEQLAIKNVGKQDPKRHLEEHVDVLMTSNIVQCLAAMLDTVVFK

STAM-binding protein = biological target: T2, STAM-binding protein (Homo sapiens, UniProt O95630); assay: Inhibition of AMSH (unknown origin) using DiUbK63TAMRA as substrate by fluorescence assay
T2 sequence (O95630 whole entry): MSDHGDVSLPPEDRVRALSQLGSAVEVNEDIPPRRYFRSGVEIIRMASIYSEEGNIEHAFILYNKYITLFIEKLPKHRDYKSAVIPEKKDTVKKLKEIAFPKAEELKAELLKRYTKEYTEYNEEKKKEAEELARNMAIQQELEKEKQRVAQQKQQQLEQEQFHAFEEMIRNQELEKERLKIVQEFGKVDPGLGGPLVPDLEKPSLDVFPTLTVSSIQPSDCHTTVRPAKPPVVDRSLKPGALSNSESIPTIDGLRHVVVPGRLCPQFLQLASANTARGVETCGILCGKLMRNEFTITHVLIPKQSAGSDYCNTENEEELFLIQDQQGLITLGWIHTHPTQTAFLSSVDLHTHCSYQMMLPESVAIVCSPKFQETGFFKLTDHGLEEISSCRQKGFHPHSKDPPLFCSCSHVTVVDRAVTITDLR

[2] = biological target: T1, 26S proteasome non-ATPase regulatory subunit 14; assay: Inhibition of 26S proteasome regulatory subunit RPN11 deubiquitinating activity in human erythrocytes using Ub4-pepOG protein substrate preincubated for 1 hr followed by substrate addition measured after 80 mins by fluorescence polarization assay
HCT-116 = assay: cells; settings: Homo sapiens, HCT-116, 72 h
Description: Antiproliferative activity against human HCT116 cells after 72 hrs by Cell Titer-Glo assay

[3] = Aqueous solubility of the compound; format: physicochemical; settings: buffer
[4] = biological target: COP9 signalosome complex subunit 5 (Homo sapiens, UniProt Q92905); assay: Inhibition of CSN5 (unknown origin) using SCFskp2-Nedd8OG as substrate after 1 hr by fluorescence polarization assay
COP9 signalosome complex subunit 5, sequence (Q92905 whole entry, the tested form may be a part, one chain of several): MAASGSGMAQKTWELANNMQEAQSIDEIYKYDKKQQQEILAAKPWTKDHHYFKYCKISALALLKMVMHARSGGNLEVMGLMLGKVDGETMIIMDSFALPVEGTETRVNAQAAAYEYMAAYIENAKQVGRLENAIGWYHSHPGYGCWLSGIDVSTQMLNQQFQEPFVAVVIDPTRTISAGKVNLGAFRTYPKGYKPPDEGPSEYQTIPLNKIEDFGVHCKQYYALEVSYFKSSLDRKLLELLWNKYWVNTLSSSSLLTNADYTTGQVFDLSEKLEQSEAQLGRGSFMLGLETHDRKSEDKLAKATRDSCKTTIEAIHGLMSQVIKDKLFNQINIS

[5] = biological target: 72 kDa type IV collagenase (Homo sapiens, UniProt P08253); assay: Inhibition of recombinant human MMP2 catalytic domain (Tyr110 to Asp452 residues) expressed in yeast using Mca-Pro-Leu-Gly-Leu-Dpa-Ala-Arg-NH2.AcOH as substrate preincubated for 30 mins followed by substrate addition measured every minute for 20 mins by fluorescence assay
72 kDa type IV collagenase, sequence (P08253 whole entry, the tested form may be a part): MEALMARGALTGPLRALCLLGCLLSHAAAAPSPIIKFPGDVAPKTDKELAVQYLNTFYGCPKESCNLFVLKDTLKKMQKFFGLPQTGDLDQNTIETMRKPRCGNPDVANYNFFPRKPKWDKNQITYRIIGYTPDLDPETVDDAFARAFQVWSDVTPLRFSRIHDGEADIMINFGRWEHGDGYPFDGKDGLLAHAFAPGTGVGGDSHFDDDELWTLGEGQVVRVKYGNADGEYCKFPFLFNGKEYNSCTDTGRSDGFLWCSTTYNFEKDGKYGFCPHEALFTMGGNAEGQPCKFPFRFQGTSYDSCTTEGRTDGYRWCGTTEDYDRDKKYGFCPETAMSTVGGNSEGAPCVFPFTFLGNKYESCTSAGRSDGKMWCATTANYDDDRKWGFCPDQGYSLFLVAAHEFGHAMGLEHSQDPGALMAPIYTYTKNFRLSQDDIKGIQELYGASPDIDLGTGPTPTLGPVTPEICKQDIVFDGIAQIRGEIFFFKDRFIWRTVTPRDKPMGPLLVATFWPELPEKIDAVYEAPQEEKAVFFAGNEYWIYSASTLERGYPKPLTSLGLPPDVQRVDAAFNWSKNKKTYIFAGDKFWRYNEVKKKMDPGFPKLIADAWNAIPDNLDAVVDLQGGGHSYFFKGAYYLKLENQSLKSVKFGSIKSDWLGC

Structure (SMILES) | IC50 [1] [µM] | IC50 (STAM-binding protein) [µM] | IC50 [2] [µM] | IC50 (HCT-116) [µM] | solubility [3] | IC50 [4] [µM] | IC50 [5] [µM]
O=C(NCc1ccccc1)c1cnc2c(SSc3cccc4cc(C(=O)NCc5ccccc5)cnc34)cccc2c1 | > 10 | > 10 |  |  |  |  | 
Oc1cccc2cccnc12 [OXYQUINOLINE] |  |  | > 100 | 6 |  |  | 
COC(=O)c1ccnc2c(SSc3cccc4c(C(=O)OC)ccnc34)cccc12 |  |  | 1 |  |  |  | 
O=C(NCc1ccco1)c1ccnc2c(SSc3cccc4c(C(=O)NCc5ccco5)ccnc34)cccc12 |  |  | 2.2 |  |  |  | 
Sc1cccc2ncccc12 |  |  | > 100 | > 100 |  |  | 
O=C(NCc1cccs1)c1cnc2c(SSc3cccc4cc(C(=O)NCc5cccs5)cnc34)cccc2c1 | 5 |  |  |  | Soluble |  | 
CSc1cccc2cccnc12 |  |  | > 100 | > 100 |  |  | 
O=C(O)c1ccnc2c(SSc3cccc4c(C(=O)O)ccnc34)cccc12 |  |  | 1.3 |  |  |  | 
O=C(NCCc1nccs1)c1ccc2c(SSc3cccc4nc(C(=O)NCCc5nccs5)ccc34)cccc2n1 | > 100 | > 100 | > 100 |  |  | 35 | 
Cc1ccc2cccc(S)c2n1 |  |  | > 100 | > 50 |  | > 100 | > 200
O=C(NCc1cccs1)c1ccc2cccc(SSc3cccc4ccc(C(=O)NCc5cccs5)nc34)c2n1 |  |  | > 100 |  |  |  | 
O=C(O)c1ccc2cccc(SSc3cccc4ccc(C(=O)O)nc34)c2n1 |  |  | > 20 |  |  |  | 
Cc1cccc2cccnc12 |  |  | > 100 | > 100 |  |  | 
O=C(NCCc1cccs1)c1cnc2c(SSc3cccc4cc(C(=O)NCCc5cccs5)cnc34)cccc2c1 | 5 |  |  |  | Soluble |  | 
Nc1cccc2cccnc12 [8-AMINOQUINOLINE] |  |  | > 100 |  |  |  | 
COC(=O)c1ccc2cccc(SSc3cccc4ccc(C(=O)OC)nc34)c2n1 |  |  | > 50 |  |  |  | 
O=C(NCc1cccs1)c1ccnc2c(SSc3cccc4c(C(=O)NCc5cccs5)ccnc34)cccc12 |  |  | 1 |  |  |  | 
O=C(NCC1CCCO1)c1cnc2c(SSc3cccc4cc(C(=O)NCC5CCCO5)cnc34)cccc2c1 (stereo not given) | 1 |  |  |  | Soluble |  | 
CSc1cccc2cc(C(=O)NCCc3nccs3)cnc12 | > 100 | > 100 | > 40 |  |  | > 100 | 
O=C(NCCN1CCOCC1)c1cnc2c(SSc3cccc4cc(C(=O)NCCN5CCOCC5)cnc34)cccc2c1 | > 10 | 26 |  |  |  | > 100 | 
O=C(NCc1ccco1)c1cnc2c(SSc3cccc4cc(C(=O)NCc5ccco5)cnc34)cccc2c1 | 1 |  |  |  | Soluble | < 0.5 | 
COC(=O)c1cnc2c(SSc3cccc4cc(C(=O)OC)cnc34)cccc2c1 |  |  | 0.9 |  |  |  | 
Sc1cccc2ccccc12 |  |  | > 100 | > 100 |  |  | 
O=C(NCCc1nccs1)c1cnc2c(O)cccc2c1 | > 100 | > 100 | > 40 |  |  | > 100 | 
NC(=O)c1cnc2c(SSc3cccc4cc(C(N)=O)cnc34)cccc2c1 | 1.2 | 1.7 |  |  |  | 15.3 | 
O=C(CNC(=O)c1cnc2c(SSc3cccc4cc(C(=O)NCC(=O)NCC(=O)OCc5ccccc5)cnc34)cccc2c1)NCC(=O)OCc1ccccc1 | > 10 | 3.5 | > 5 |  |  | > 30 | 

The next lines start with the values.

IC50 [1] [µM] | IC50 (STAM-binding protein) [µM] | IC50 [2] [µM] | IC50 (HCT-116) [µM] | solubility [3] | IC50 [4] [µM] | IC50 [5] [µM] | Structure (SMILES)
> 10 | 17 | 4 |  | Soluble | > 50 |  | O=C(NCc1ccccn1)c1cnc2c(SSc3cccc4cc(C(=O)NCc5ccccn5)cnc34)cccc2c1
 |  | 1.1 |  |  |  |  | O=C(O)c1cnc2c(SSc3cccc4cc(C(=O)O)cnc34)cccc2c1
> 10 |  | < 0.2 |  | Insoluble |  |  | COc1ccc(CNC(=O)c2cnc3c(SSc4cccc5cc(C(=O)NCc6ccc(OC)cc6)cnc45)cccc3c2)cc1
> 10 | 3.5 | 0.8 |  | Insoluble | > 100 |  | O=C(NCc1ccc(C(F)(F)F)cc1)c1cnc2c(SSc3cccc4cc(C(=O)NCc5ccc(C(F)(F)F)cc5)cnc34)cccc2c1
1.4 |  |  |  | Soluble |  |  | O=C(NCCc1ccco1)c1cnc2c(SSc3cccc4cc(C(=O)NCCc5ccco5)cnc34)cccc2c1
 | 4.1 |  |  |  |  |  | CNC(=O)c1cnc2c(SSc3cccc4cc(C(=O)NC)cnc34)cccc2c1
> 10 | 5 | 2.6 |  | Soluble | 15 |  | O=C(Nc1ncco1)c1cnc2c(SSc3cccc4cc(C(=O)Nc5ncco5)cnc34)cccc2c1
> 10 | 0.5 | 0.2 |  |  | 7 |  | O=C(NCc1ccncc1)c1cnc2c(SSc3cccc4cc(C(=O)NCc5ccncc5)cnc34)cccc2c1
> 10 | 0.9 | < 0.2 |  | Insoluble |  |  | O=C(NCc1ccc(F)cc1)c1cnc2c(SSc3cccc4cc(C(=O)NCc5ccc(F)cc5)cnc34)cccc2c1
 |  |  |  | Soluble | 24 |  | O=C(NCc1nccs1)c1cnc2c(SSc3cccc4cc(C(=O)NCc5nccs5)cnc34)cccc2c1
> 10 | < 0.2 |  |  | Insoluble |  |  | O=C(NCc1ccc2c(c1)OCO2)c1cnc2c(SSc3cccc4cc(C(=O)NCc5ccc6c(c5)OCO6)cnc34)cccc2c1
> 10 |  | 3.2 |  | Soluble | > 100 |  | O=C(NCc1cccnc1)c1cnc2c(SSc3cccc4cc(C(=O)NCc5cccnc5)cnc34)cccc2c1
 |  | > 100 |  |  |  |  | O=C(NCc1ccccc1)c1ccc2cccc(SSc3cccc4ccc(C(=O)NCc5ccccc5)nc34)c2n1
> 0.3 | 2.2 | > 2 |  |  | > 100 |  | COC(=O)CNC(=O)c1cnc2c(SSc3cccc4cc(C(=O)NCC(=O)OC)cnc34)cccc2c1
